Source: US10376520B2, “Methods for the treatment of cardiovascular disorders” (Galapagos NV, priority 2015, dated 2019)

Test system: RA patients
Assay: [HDL] determination, Study 1 (RA patients, add-on to MTX)
Format: in vivo, human
Description: Double-blind, placebo-controlled add on study in subjects with moderately to severely active RA who have an inadequate response to methotrexate (MTX) (oral or parenteral).
595 subjects randomized to one of 6 dose regimens of Compound 1 (dosed as a [Compound 1:HCl:3H2O]) (3 dose levels administered either once or twice daily) or placebo on top of each subject's stable dose of MTX.
Compound 1 (dosed as a [Compound 1:HCl:3H2O]) is dosed for twelve weeks once daily (q.d.) (50 mg, 100 mg or 200 mg) or twice daily (b.i.d.) (25 mg, 50 mg or 100 mg); or placebo.
At Week 12, the subjects on placebo who have not achieved 20% improvement in swollen joint count (SJC66) and tender joint count (TJC68) are re-randomized automatically to receive Compound 1 (dosed as a [Compound 1:HCl:3H2O]) either at 100 mg q.d. or 50 mg b.i.d. doses in a blinded fashion; subjects on 50 mg q.d. who have not achieved 20% improvement in SJC66 and TJC68 will be assigned to 100 mg q.d. and subjects on 25 mg b.i.d. that have not achieved a 20% improvement in SJC66 and TJC68 will be assigned to 50 mg b.i.d. Subjects who switch treatment at week 12 are handled as if they discontinued at week 12 for the purpose of statistical analysis, whereas subjects in the other groups will maintain their randomized treatment until Week 24.
This assay relies on a homogeneous enzymatic colorimetric test. In the presence of magnesium ions, dextran sulfate selectively forms water-soluble complexes with LDL, VLDL and chylomicrons which are resistant to PEG-modified enzymes.
The cholesterol concentration of [HDL]-cholesterol is determined enzymatically by cholesterol esterase and cholesterol oxidase coupled with PEG to the amino groups (approx. 40%).
In the presence of peroxidase, the hydrogen peroxide generated reacts with 4-amino-antipyrine and Sodium N-(2-hydroxy-3-sulfopropyl)-3,5-dimethoxyaniline (HSDA) to form a purple-blue dye. The color intensity of this dye is directly proportional to the cholesterol concentration and is measured photometrically.
Human serum and plasma samples [HDL] determination was done on a Roche/Hitachi Cobas c 701/702 system which automatically calculate the analyte concentration of each sample. Samples containing precipitates are centrifuged before performing the assay.

[1] = continued 50 mg q.d. (N = 63), week 4
[2] = continued 50 mg q.d. (N = 63), week 8
[3] = continued 50 mg q.d. (N = 63), week 12
[4] = continued 50 mg q.d. (N = 63), week 16
[5] = continued 50 mg q.d. (N = 63), week 20
[6] = continued 50 mg q.d. (N = 63), week 24
[7] = continued 100 mg b.i.d. (N = 84), week 1
[8] = continued 100 mg b.i.d. (N = 84), week 2
[9] = continued 100 mg b.i.d. (N = 84), week 4
[10] = continued 100 mg b.i.d. (N = 84), week 8
[11] = continued 100 mg b.i.d. (N = 84), week 12
[12] = continued 100 mg b.i.d. (N = 84), week 16
[13] = continued 100 mg b.i.d. (N = 84), week 20
[14] = continued 100 mg b.i.d. (N = 84), week 24
[15] = continued 100 mg q.d. (N = 85), week 1
[16] = continued 100 mg q.d. (N = 85), week 2
[17] = continued 100 mg q.d. (N = 85), week 4
[18] = continued 100 mg q.d. (N = 85), week 8
[19] = continued 100 mg q.d. (N = 85), week 12
[20] = continued 100 mg q.d. (N = 85), week 16
[21] = continued 100 mg q.d. (N = 85), week 20
[22] = continued 100 mg q.d. (N = 85), week 24
[23] = continued 200 mg q.d. (N = 86), week 1
[24] = continued 200 mg q.d. (N = 86), week 2

O=C(Nc1nc2cccc(-c3ccc(CN4CCS(=O)(=O)CC4)cc3)n2n1)C1CC1 [Compound 1, cyclopropanecarboxylic acid {5-[4-(1,1-dioxo-thiomorpholin-4-ylmethyl)-phenyl]-[1,2,4]triazolo[1,5-a]pyridin-2yl}-amide]
[HDL] Mean percentage CFB - 24 weeks results [1]: 4.87% | [HDL] Median CFB - 24 weeks results [1]: 0.05 mmol/L | [HDL] Mean CFB - 24 weeks results [2]: 0.06 mmol/L | [HDL] Mean percentage CFB - 24 weeks results [2]: 5.57% | [HDL] Median CFB - 24 weeks results [2]: 0.10 mmol/L | [HDL] Mean CFB - 24 weeks results [3]: 0.08 mmol/L | [HDL] Mean percentage CFB - 24 weeks results [3]: 7.86% | [HDL] Median CFB - 24 weeks results [3]: 0.06 mmol/L | [HDL] Mean CFB - 24 weeks results [4]: 0.08 mmol/L | [HDL] Mean percentage CFB - 24 weeks results [4]: 6.63% | [HDL] Median CFB - 24 weeks results [4]: 0.10 mmol/L | [HDL] Mean CFB - 24 weeks results [5]: 0.10 mmol/L | [HDL] Mean percentage CFB - 24 weeks results [5]: 8.81% | [HDL] Median CFB - 24 weeks results [5]: 0.10 mmol/L | [HDL] Mean CFB - 24 weeks results [6]: 0.17 mmol/L | [HDL] Mean percentage CFB - 24 weeks results [6]: 14.22% | [HDL] Median CFB - 24 weeks results [6]: 0.15 mmol/L | [HDL] Mean CFB - 24 weeks results [7]: 0.12 mmol/L | [HDL] Mean percentage CFB - 24 weeks results [7]: 9.40% | [HDL] Median CFB - 24 weeks results [7]: 0.10 mmol/L | [HDL] Mean CFB - 24 weeks results [8]: 0.20 mmol/L | [HDL] Mean percentage CFB - 24 weeks results [8]: 15.20% | [HDL] Median CFB - 24 weeks results [8]: 0.18 mmol/L | [HDL] Mean CFB - 24 weeks results [9]: 0.25 mmol/L | [HDL] Mean percentage CFB - 24 weeks results [9]: 19.54% | [HDL] Median CFB - 24 weeks results [9]: 0.25 mmol/L | [HDL] Mean CFB - 24 weeks results [10]: 0.26 mmol/L | [HDL] Mean percentage CFB - 24 weeks results [10]: 21.15% | [HDL] Median CFB - 24 weeks results [10]: 0.25 mmol/L | [HDL] Mean CFB - 24 weeks results [11]: 0.30 mmol/L | [HDL] Mean percentage CFB - 24 weeks results [11]: 23.14% | [HDL] Median CFB - 24 weeks results [11]: 0.25 mmol/L | [HDL] Mean CFB - 24 weeks results [12]: 0.27 mmol/L | [HDL] Mean percentage CFB - 24 weeks results [12]: 21.09% | [HDL] Median CFB - 24 weeks results [12]: 0.28 mmol/L | [HDL] Mean CFB - 24 weeks results [13]: 0.28 mmol/L | [HDL] Mean percentage CFB - 24 weeks results [13]: 21.88% | [HDL] Median CFB - 24 weeks results [13]: 0.29 mmol/L | [HDL] Mean CFB - 24 weeks results [14]: 0.29 mmol/L | [HDL] Mean percentage CFB - 24 weeks results [14]: 22.68% | [HDL] Median CFB - 24 weeks results [14]: 0.30 mmol/L | [HDL] Mean CFB - 24 weeks results [15]: 0.05 mmol/L | [HDL] Mean percentage CFB - 24 weeks results [15]: 5.43% | [HDL] Median CFB - 24 weeks results [15]: 0.06 mmol/L | [HDL] Mean CFB - 24 weeks results [16]: 0.07 mmol/L | [HDL] Mean percentage CFB - 24 weeks results [16]: 7.02% | [HDL] Median CFB - 24 weeks results [16]: 0.07 mmol/L | [HDL] Mean CFB - 24 weeks results [17]: 0.11 mmol/L | [HDL] Mean percentage CFB - 24 weeks results [17]: 9.40% | [HDL] Median CFB - 24 weeks results [17]: 0.13 mmol/L | [HDL] Mean CFB - 24 weeks results [18]: 0.09 mmol/L | [HDL] Mean percentage CFB - 24 weeks results [18]: 8.18% | [HDL] Median CFB - 24 weeks results [18]: 0.11 mmol/L | [HDL] Mean CFB - 24 weeks results [19]: 0.10 mmol/L | [HDL] Mean percentage CFB - 24 weeks results [19]: 8.49% | [HDL] Median CFB - 24 weeks results [19]: 0.10 mmol/L | [HDL] Mean CFB - 24 weeks results [20]: 0.09 mmol/L | [HDL] Mean percentage CFB - 24 weeks results [20]: 7.94% | [HDL] Median CFB - 24 weeks results [20]: 0.10 mmol/L | [HDL] Mean CFB - 24 weeks results [21]: 0.15 mmol/L | [HDL] Mean percentage CFB - 24 weeks results [21]: 12.24% | [HDL] Median CFB - 24 weeks results [21]: 0.14 mmol/L | [HDL] Mean CFB - 24 weeks results [22]: 0.15 mmol/L | [HDL] Mean percentage CFB - 24 weeks results [22]: 12.17% | [HDL] Median CFB - 24 weeks results [22]: 0.15 mmol/L | [HDL] Mean CFB - 24 weeks results [23]: 0.11 mmol/L | [HDL] Mean percentage CFB - 24 weeks results [23]: 9.42% | [HDL] Median CFB - 24 weeks results [23]: 0.13 mmol/L | [HDL] Mean CFB - 24 weeks results [24]: 0.20 mmol/L | [HDL] Mean percentage CFB - 24 weeks results [24]: 16.66% | [HDL] Median CFB - 24 weeks results [24]: 0.20 mmol/L | [HDL] Mean CFB - 24 weeks results (continued 200 mg q.d. (N = 86), week 4): 0.24 mmol/L
